{"source": "patent US5063206A", "about": "“Compositions having use as treatment of neuropsychiatric deficits” (The United States of Americas as represented by the …, priority 1989, dated 1991)", "tested_on": "volunteers who tested negative for HIV antibodies", "experiment": "Clinical effects observed in volunteers who tested negative for HIV antibodies", "type": "in vivo, human", "method": "was given at dosage of 0.033 mg/kg/da to 0.133 mg/kg/da for seven days. As indicated in the Table, the unexpected effects observed in these volunteers who tested negative for HIV antibodies were the following: […]", "data": [{"substance": "D--Ala--Ser--Thr--Thr--Thr--Asn--Tyr--Thr--amide (ASTTTNYT; N-terminal D-residue; C-terminal amide; printed: Ala--Ser--Thr--Thr--Thr--Asn--Tyr--Thr--) [Peptide T]", "values": [{"measurement": "symptoms of substance abuse, childhood dyslexia and depression", "setting": "0.033 mg/kg/da to 0.133 mg/kg/da for seven days", "value": "ameliorated"}, {"measurement": "scores on memory and attention components of standard neuropsychologic tests", "setting": "0.033-0.133 mg/kg/da for seven days, effect remitted after Peptide T was discontinued", "value": "Incremental scores"}, {"measurement": "physical activity while on drug", "setting": "all subjects, did not continue after drug discontinuance", "value": "increases in physical activity"}, {"measurement": "mood scores on depression scales", "setting": "the two research volunteers who had prior histories of depression", "value": "Improved mood scores"}, {"measurement": "duration of the improved mood effect", "setting": "the two research volunteers who had prior histories of depression, follow-up", "value": "maintained for one month of follow-up"}]}]}
